US11851406B2, “Positive allosteric modulators of the muscarinic acetylcholine receptor M1” (Vanderbilt University, priority 2018, dated 2023)

Columns and labels:
human mAChR M1 [1] = target: T1, human mAChR M1 (Homo sapiens, UniProt P11229); test: mAChR M1 cell-based functional assay (calcium mobilization), agonist activity upon compound addition alone; conditions: CHO-K1 cells expressing hM1; for EC50: calcium mobilization upon compound addition, no acetylcholine; for Emax: compound alone, relative to the maximum for acetylcholine
T1 sequence (P11229 1-460): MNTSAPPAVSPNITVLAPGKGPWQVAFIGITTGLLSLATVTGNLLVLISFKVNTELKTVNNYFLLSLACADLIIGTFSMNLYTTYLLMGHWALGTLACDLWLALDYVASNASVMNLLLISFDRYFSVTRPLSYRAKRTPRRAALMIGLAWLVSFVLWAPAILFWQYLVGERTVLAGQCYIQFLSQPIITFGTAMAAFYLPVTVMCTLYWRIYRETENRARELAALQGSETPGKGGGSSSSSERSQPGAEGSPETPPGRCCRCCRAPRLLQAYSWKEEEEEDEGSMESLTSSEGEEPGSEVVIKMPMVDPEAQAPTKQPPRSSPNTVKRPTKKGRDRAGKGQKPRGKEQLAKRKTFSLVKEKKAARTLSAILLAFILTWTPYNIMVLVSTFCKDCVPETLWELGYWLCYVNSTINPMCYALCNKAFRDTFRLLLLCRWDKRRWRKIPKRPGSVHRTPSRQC
Outline: (§1)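 Calcium mobilization in CHO-K1 cells stably expressing hM1, Fluo-4 loaded; 11-point 1:3 compound series added at 4 s, acetylcholine EC20 at 144 s, kinetic fluorescence ratio at 1 Hz. Agonism: rise on compound alone, Emax relative to acetylcholine maximum; PAM: potentiation of EC20 response; four-parameter logistic fits.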

human mAChR M1 [2] = target: T1, human mAChR M1; test: mAChR M1 cell-based functional assay (calcium mobilization), PAM activity: increase in the EC20 acetylcholine response; conditions: CHO-K1 cells expressing hM1; calcium flux (Fluo-4); potentiation of EC20 acetylcholine response
Outline: as §1

| Compound | EC50 (human mAChR M1 [1]) | Emax (human mAChR M1 [1]) | Emax (human mAChR M1 [2]) | EC50 (human mAChR M1 [2]) |
| --- | --- | --- | --- | --- |
| Cc1c(Cc2ccc(-n3cccn3)cc2)cc(C(=O)NC2CC3(COC3)C2)nc1-c1ccn(C)n1 [Compound 58, 4-(4-(1H-pyrazol-1-yl)benzyl)-5-methyl-6-(1-methyl-1H-pyrazol-3-yl)-N-(2-oxaspiro[3.3]heptan-6-yl)picolinamide] | > 10 µM | < 5% | 83% | 6 µM |
| Cc1c(Cc2ccc(-n3cccn3)cc2)cc(C(=O)N[C@H]2CCC[C@@H]2O)nc1-c1ccn(C)n1 [Compound 59, 4-(4-(1H-pyrazol-1-yl)benzyl)-N-((1S,2S)-2-hydroxycyclopentyl)-5-methyl-6-(1-methyl-1H-pyrazol-3-yl)picolinamide] | > 10 µM | < 5% | 85% | 1.98 µM |
| Cc1c(Cc2ccc(-n3cccn3)cc2)cc(C(=O)N[C@H]2CC[C@@H]2O)nc1-c1ccn(C)n1 [Compound 60, 4-(4-(1H-pyrazol-1-yl)benzyl)-N-((1S,2S)-2-hydroxycyclobutyl)-5-methyl-6-(1-methyl-1H-pyrazol-3-yl)picolinamide] | > 10 µM | < 5% | 79% | – |
| Cc1c(Cc2ccc(-n3cccn3)cc2)cc(C(=O)NCC2CCOCC2)nc1-c1ccn(C)n1 [Compound 61, 4-(4-(1H-pyrazol-1-yl)benzyl)-5-methyl-6-(1-methyl-1H-pyrazol-3-yl)-N-((tetrahydro-2H-pyran-4-yl)methyl)picolinamide] | > 10 µM | < 5% | 64% | – |
| Cc1c(Cc2ccc(-n3cccn3)cc2)cc(C(=O)NC[C@@H]2CCCO2)nc1-c1ccn(C)n1 [Compound 62, (S)-4-(4-(1H-pyrazol-1-yl)benzyl)-5-methyl-6-(1-methyl-1H-pyrazol-3-yl)-N-((tetrahydrofuran-2-yl)methyl)picolinamide] | > 10 µM | < 5% | 77% | 4.63 µM |
| Cc1c(Cc2ccc(-n3cccn3)cc2)cc(C(=O)NC[C@H]2CCCO2)nc1-c1ccn(C)n1 [Compound 63, (R)-4-(4-(1H-pyrazol-1-yl)benzyl)-5-methyl-6-(1-methyl-1H-pyrazol-3-yl)-N-((tetrahydrofuran-2-yl)methyl)picolinamide] | > 10 µM | < 5% | 57% | – |
| Cc1c(Cc2ccc(-n3cccn3)cc2)cc(C(=O)NC2CCOCC2(C)C)nc1-c1ccn(C)n1 (stereo not shown) [Compound 64, 4-(4-(1H-pyrazol-1-yl)benzyl)-N-(3,3-dimethyltetrahydro-2H-pyran-4-yl)-5-methyl-6-(1-methyl-1H-pyrazol-3-yl)picolinamide] | > 10 µM | < 5% | 91% | 2.89 µM |
| Cc1ccc(Cc2cc(C(=O)N[C@H]3CCOC[C@@H]3O)nc(-c3ccn(C)n3)c2C)cn1 [Compound 65, N-((3R,4S)-3-hydroxytetrahydro-2H-pyran-4-yl)-5-methyl-6-(1-methyl-1H-pyrazol-3-yl)-4-((6-methylpyridin-3-yl)methyl)picolinamide] | > 10 µM | < 5% | 71% | – |
| Cc1ccc(Cc2cc(C(=O)N[C@H]3CCCC[C@@H]3O)nc(-c3ccn(C)n3)c2C)cn1 [Compound 66, N-((1S,2S)-2-hydroxycyclohexyl)-5-methyl-6-(1-methyl-1H-pyrazol-3-yl)-4-((6-methylpyridin-3-yl)methyl)picolinamide] | > 10 µM | < 5% | 66% | – |
| Cc1ccc(Cc2cc(C(=O)N[C@H]3CCC[C@@H]3O)nc(-c3ccn(C)n3)c2C)cn1 [Compound 67, N-((1S,2S)-2-hydroxycyclopentyl)-5-methyl-6-(1-methyl-1H-pyrazol-3-yl)-4-((6-methylpyridin-3-yl)methyl)picolinamide] | > 10 µM | < 5% | 38% | – |

Now from value to molecule:

| EC50 (human mAChR M1 [1]) | Emax (human mAChR M1 [1]) | Emax (human mAChR M1 [2]) | EC50 (human mAChR M1 [2]) | Compound |
| --- | --- | --- | --- | --- |
| > 10 µM | < 5% | 65% | – | Cc1c(Cc2ccc(-c3cnn(C)c3)nc2)cc(C(=O)NC2CCOCC2)nc1-n1cccn1 [Compound 50, 5-methyl-4-((6-(1-methyl-1H-pyrazol-4-yl)pyridin-3-yl)methyl)-6-(1H-pyrazol-1-yl)-N-(tetrahydro-2H-pyran-4-yl)picolinamide] |
| > 10 µM | < 5% | 69% | – | Cc1nc(-c2ccc(Cc3cc(C(=O)NC4CCOCC4)nc(-n4cccn4)c3C)cc2)co1 [Compound 51, 5-methyl-4-(4-(2-methyloxazol-4-yl)benzyl)-6-(1H-pyrazol-1-yl)-N-(tetrahydro-2H-pyran-4-yl)picolinamide] |
| > 10 µM | 9% | 84% | 5.03 µM | Cc1c(Cc2ccc(-c3ccn(C)n3)nc2)cc(C(=O)N[C@H]2CCC[C@@H]2O)nc1-n1cccn1 [Compound 52, N-((1S,2S)-2-hydroxycyclopentyl)-5-methyl-4-((6-(1-methyl-1H-pyrazol-3-yl)pyridin-3-yl)methyl)-6-(1H-pyrazol-1-yl)picolinamide] |
| > 10 µM | 5% | 75% | 3.96 µM | Cc1c(Cc2ccc(-c3cnn(C)c3)nc2)cc(C(=O)N[C@H]2CCC[C@@H]2O)nc1-n1cccn1 [Compound 53, N-((1S,2S)-2-hydroxycyclopentyl)-5-methyl-4-((6-(1-methyl-1H-pyrazol-4-yl)pyridin-3-yl)methyl)-6-(1H-pyrazol-1-yl)picolinamide] |
| > 10 µM | < 5% | 52% | 3.87 µM | Cc1nc(-c2ccc(Cc3cc(C(=O)N[C@H]4CCC[C@@H]4O)nc(-n4cccn4)c3C)cc2)co1 [Compound 54, N-((1S,2S)-2-hydroxycyclopentyl)-5-methyl-4-(4-(2-methyloxazol-4-yl)benzyl)-6-(1H-pyrazol-1-yl)picolinamide] |
| 6.7 µM | 22% | 77% | 0.324 µM | Cc1c(Cc2ccc(-n3cccn3)cc2)cc(C(=O)N[C@H]2CCOC[C@@H]2O)nc1-c1ccn(C)n1 [Compound 55, 4-(4-(1H-pyrazol-1-yl)benzyl)-N-((3R,4S)-3-hydroxytetrahydro-2H-pyran-4-yl)-5-methyl-6-(1-methyl-1H-pyrazol-3-yl)picolinamide] |
| > 10 µM | < 5% | 81% | 0.906 µM | Cc1c(Cc2ccc(-n3cccn3)cc2)cc(C(=O)N[C@H]2CCCC[C@@H]2O)nc1-c1ccn(C)n1 [Compound 56, 4-(4-(1H-pyrazol-1-yl)benzyl)-N-((1S,2S)-2-hydroxycyclohexyl)-5-methyl-6-(1-methyl-1H-pyrazol-3-yl)picolinamide] |
| > 10 µM | < 5% | 81% | 5.7 µM | Cc1c(Cc2ccc(-n3cccn3)cc2)cc(C(=O)NC2CCOCC2)nc1-c1ccn(C)n1 [Compound 57, 4-(4-(1H-pyrazol-1-yl)benzyl)-5-methyl-6-(1-methyl-1H-pyrazol-3-yl)-N-(tetrahydro-2H-pyran-4-yl)picolinamide] |
